Assay results published in patent US20220177477A1 (Central China Normal University, priority 2019, published 2022).

Molecular target: T1, TRKA (Homo sapiens, UniProt P04629)
T1 construct: purchased Carna Biosciences 08-186
Test: In vitro biochemical HTRF KinEASE kinase inhibition, TRKA
Settings: wild-type kinase, final ATP 3.727 μmol/L; read-out: TRKA IC50

T1 sequence (P04629 33-796): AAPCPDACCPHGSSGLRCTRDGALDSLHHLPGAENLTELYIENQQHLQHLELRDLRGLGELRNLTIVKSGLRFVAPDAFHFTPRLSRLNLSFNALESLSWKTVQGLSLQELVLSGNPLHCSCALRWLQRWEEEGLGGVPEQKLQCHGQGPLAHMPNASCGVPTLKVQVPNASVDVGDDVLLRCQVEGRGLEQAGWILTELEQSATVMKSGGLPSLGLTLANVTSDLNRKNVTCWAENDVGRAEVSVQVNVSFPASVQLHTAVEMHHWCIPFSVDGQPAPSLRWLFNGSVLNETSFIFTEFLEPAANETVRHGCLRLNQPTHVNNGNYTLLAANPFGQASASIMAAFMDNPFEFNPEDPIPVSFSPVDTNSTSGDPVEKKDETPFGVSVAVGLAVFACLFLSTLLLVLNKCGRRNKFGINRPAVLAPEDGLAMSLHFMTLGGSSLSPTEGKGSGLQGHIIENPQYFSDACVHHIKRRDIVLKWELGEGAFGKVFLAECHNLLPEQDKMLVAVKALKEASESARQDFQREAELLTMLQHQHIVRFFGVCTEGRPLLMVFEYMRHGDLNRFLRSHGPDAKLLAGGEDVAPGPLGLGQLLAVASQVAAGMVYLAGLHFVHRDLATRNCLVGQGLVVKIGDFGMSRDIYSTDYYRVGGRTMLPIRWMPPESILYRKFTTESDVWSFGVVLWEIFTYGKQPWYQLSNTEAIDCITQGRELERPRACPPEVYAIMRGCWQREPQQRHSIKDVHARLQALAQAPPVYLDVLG

Row | Compound | IC50
1 | CC(Nc1ccn2ncc(-c3cnn(CC(F)F)c3)c2n1)c1cc(F)ccc1OCC(F)F (stereo not shown) [Compound 6, N-(1-(2-(2,2-difluoroethoxy)-5-fluorophenyl)ethyl)-3-(1-(2,2-difluoroethyl)-1H-pyrazol-4-yl) pyrazolo [1,5-a] pyrimidin-5-amine] | 0.0124 µM
2 | CC(Nc1ccn2ncc(-c3cnn(C4CCCCC4O)c3)c2n1)c1cc(F)ccc1OCC(F)F (stereo not shown) [Compound 9, 2-(4-(5-((1-(2-(2,2-difluoroethoxy)-5-fluorophenyl)ethyl)amino)pyrazolo [1,5-a]pyrimidin-3-yl)-1H-pyrazol-1-yl) cyclohexan-1-ol] | 0.0114 µM
3 | CC(Nc1ccn2ncc(-c3cnn(C4CCOCC4)c3)c2n1)c1cc(F)ccc1OCC(F)F (stereo not shown) [Compound 11, N-(1-(2-(2,2-difluoroethoxy)-5-fluorophenyl)ethyl)-3-(1-(tetrahydro-2H-pyran-4-yl)-1H-pyrazol-4-yl) pyrazolo [1,5-a] pyrimidin-5-amine] | 0.0118 µM
4 | CC(Nc1ccn2ncc(-c3cnn(S(C)(=O)=O)c3)c2n1)c1cc(F)ccc1OCC(F)F (stereo not shown) [Compound 13, N-(1-(2-(2,2-difluoroethoxy)-5-fluorophenyl)ethyl)-3-(1-(methylsulfonyl)-1H-pyrazol-4-yl) pyrazolo [1,5-a] pyrimidin-5-amine] | 0.0104 µM
5 | CC(Nc1ccn2ncc(-c3cnn(C)c3)c2n1)c1cc(F)cc(F)c1OCC(F)F (stereo not shown) [Compound 15, N-(1-(2-(2,2-difluoroethoxy)-3,5-difluorophenyl)ethyl)-3-(1-methyl-1H-pyrazol-4-yl) pyrazolo [1,5-a] pyrimidin-5-amine] | 0.0117 µM
6 | CC(Nc1ccn2ncc(-c3cnn(C)c3)c2n1)c1ccccc1OCC(F)F (stereo not shown) [Compound 17, N-(1-(2-(2,2-difluoroethoxy)phenyl)ethyl)-3-(1-methyl-1H-pyrazol-4-yl) pyrazolo [1,5-a] pyrimidin-5-amine] | 0.0183 µM
7 | CC(Nc1ccn2ncc(-c3cnn(C)c3)c2n1)c1cc(F)ccc1O (stereo not shown) [Compound a1-2, 4-fluoro-2-(1-((3-(1-methyl-1H-pyrazol-4-yl)pyrazolo [1,5-a]pyrimidin-5-yl)amino)ethyl) phenol] | 0.009 µM
8 | CC(Nc1ccn2ncc(-c3cnn(C4CCCCC4O)c3)c2n1)c1cc(F)ccc1O (stereo not shown) [Compound a3-4, 4-fluoro-2-(1-((3-(1-(2-hydroxycyclohexyl)-1H-pyrazol-4-yl)pyrazolo [1,5-a]pyrimidin-5-yl)amino)ethyl) phenol] | 0.0242 µM

Other lines, results leading:

Row | IC50 | Compound
9 | 0.004 µM | CC(Nc1ccn2ncc(-c3cnn(CCO)c3)c2n1)c1cc(F)ccc1OC(F)F (stereo not shown) [Compound a5-9, 2-(4-(5-((1-(2-(difluoromethoxy)-5-fluorophenyl)ethyl)amino)pyrazolo [1,5-a]pyrimidin-3-yl)-1H-pyrazol-1-yl) ethan-1-ol]
10 | 0.0265 µM | CC(Nc1ccn2ncc(-c3cnn(C4CCOCC4)c3)c2n1)c1cc(F)ccc1OC(F)F (stereo not shown) [Compound a6-10, N-(1-(2-(difluoromethoxy)-5-fluorophenyl)ethyl)-3-(1-(tetrahydro-2H-pyran-4-yl)-1H-pyrazol-4-yl) pyrazolo [1,5-a] pyrimidin-5-amine]
11 | 0.023 µM | CCOc1ccc(F)cc1C(C)Nc1ccn2ncc(-c3cnn(C4CCOCC4)c3)c2n1 (stereo not shown) [Compound a7-12, N-(1-(2-ethoxy-5-fluorophenyl)ethyl)-3-(1-(tetrahydro-2H-pyran-4-yl)-1H-pyrazol-4-yl) pyrazolo [1,5-a] pyrimidin-5-amine]
12 | 0.0409 µM | CC(Nc1ccn2ncc(-c3cnn(C(F)F)c3)c2n1)c1cc(F)ccc1OCCO (stereo not shown) [Compound a8-13, 2-(2-(1-((3-(1-(difluoromethyl)-1H-pyrazol-4-yl)pyrazolo [1,5-a]pyrimidin-5-yl)amino)ethyl)-4-fluorophenoxy) ethanol]
13 | 0.0678 µM | COCCOc1ccc(F)cc1C(C)Nc1ccn2ncc(-c3cnn(C4CCOCC4)c3)c2n1 (stereo not shown) [Compound a9-14, N-(1-(5-fluoro-2-(2-methoxyethoxy)phenyl)ethyl)-3-(1-(tetrahydro-2H-pyran-4-yl)-1H-pyrazol-4-yl) pyrazolo [1,5-a] pyrimidin-5-amine]
